Counter-ions that a name gives are not always drawn.
target: T1, human recombinant HPK1 (Homo sapiens, UniProt Q92918); assay: Inhibitory activity against human recombinant HPK1 (TR-FRET); format: biochemical; conditions: ULight-p70S6K peptide, ATP at Km, room temperature, 1 hour, 0.32 to 1000 nM compound
T1 construct: purchased BPS Bioscience
Outline: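 IC50 classes A–D use 10, 50 and 100 nM cut-offs, derived from TR-FRET signal inhibition relative to DMSO controls. Human recombinant HPK1 phosphorylated ULight-p70S6K peptide at Km ATP for 1 h, room temperature, pH 7.4; test range 0.32–1000 nM final, detection with Eu-labelled antibody after EDTA quench.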

T1 sequence (Q92918 whole entry): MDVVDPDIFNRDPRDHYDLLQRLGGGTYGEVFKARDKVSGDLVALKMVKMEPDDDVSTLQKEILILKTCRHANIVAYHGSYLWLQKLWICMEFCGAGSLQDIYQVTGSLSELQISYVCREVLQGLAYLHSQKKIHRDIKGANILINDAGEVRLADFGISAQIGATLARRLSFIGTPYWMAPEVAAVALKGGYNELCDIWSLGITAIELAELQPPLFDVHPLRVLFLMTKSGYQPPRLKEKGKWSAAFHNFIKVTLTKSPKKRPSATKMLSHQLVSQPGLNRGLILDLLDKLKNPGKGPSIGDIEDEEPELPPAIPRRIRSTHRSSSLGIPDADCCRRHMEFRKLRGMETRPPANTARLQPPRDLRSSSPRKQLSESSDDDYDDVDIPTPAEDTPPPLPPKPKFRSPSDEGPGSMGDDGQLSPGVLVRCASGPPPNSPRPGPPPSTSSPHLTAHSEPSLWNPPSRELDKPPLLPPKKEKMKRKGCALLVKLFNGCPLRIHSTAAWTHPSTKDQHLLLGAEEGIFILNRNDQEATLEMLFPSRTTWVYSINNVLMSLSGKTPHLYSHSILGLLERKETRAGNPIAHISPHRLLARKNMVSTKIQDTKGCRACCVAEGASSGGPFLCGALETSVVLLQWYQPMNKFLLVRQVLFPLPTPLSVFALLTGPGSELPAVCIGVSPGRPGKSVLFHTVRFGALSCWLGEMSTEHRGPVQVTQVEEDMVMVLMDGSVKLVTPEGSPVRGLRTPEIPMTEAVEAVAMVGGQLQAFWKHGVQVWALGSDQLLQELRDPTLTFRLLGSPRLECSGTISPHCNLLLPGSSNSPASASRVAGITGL

| SMILES | IC50 |
| --- | --- |
| O[C@H]1CCCN(c2cc(Nc3ccnc(-c4ccc5nccnc5c4)n3)ncc2-c2cnn(C3CCOCC3)c2)C1 [Example 28, (S)-1-(2-((2-(quinoxalin-6-yl)pyrimidin-4-yl)amino)-5-(1-(tetrahydro-2H-pyran-4-yl)-1H-pyrazol-4-yl)pyridin-4-yl)piperidin-3-ol] | 10 to 50 nM |
| COc1cccc(F)c1-c1nccc(Nc2cc(N3CCC[C@H](N)C3)c(-c3cnn(CC4CNC4)c3)cn2)n1 [Example 237, (S)-N-(4-(3-aminopiperidin-1-yl)-5-(1-(azetidin-3-ylmethyl)-1H-pyrazol-4-yl)pyridin-2-yl)-2-(2-fluoro-6-methoxyphenyl)pyrimidin-4-amine hydrochloride] | ≤ 10 nM |
| COc1cccc(F)c1-c1nccc(Nc2cc(N3CCC[C@H](N)C3)c(-c3ccc(C(=O)N4CCOCC4)cc3)cn2)n1 [Example 255, (S)-(4-(4-(3-aminopiperidin-1-yl)-6-((2-(2-fluoro-6-methoxyphenyl)pyrimidin-4-yl)amino)pyridin-3-yl)phenyl)(morpholino)methanone hydrochloride] | ≤ 10 nM |
| COc1cccc(F)c1-c1nccc(Nc2cc(N3CCC[C@H](O)C3)c(-c3cnn(C)c3)cn2)n1 [Example 12, (S)-1-(2-((2-(2-fluoro-6-methoxyphenyl)pyrimidin-4-yl)amino)-5-(1-methyl-1H-pyrazol-4-yl)pyridin-4-yl)piperidin-3-ol] | ≤ 10 nM |
| COc1cccc(F)c1-c1nccc(Nc2cc(N3CCC[C@H](CF)C3)c(-c3cnn(C(F)F)c3)cn2)n1 [Example 272, (S)-N-(5-(1-(difluoromethyl)-1H-pyrazol-4-yl)-4-(3-(fluoromethyl)piperidin-1-yl)pyridin-2-yl)-2-(2-fluoro-6-methoxyphenyl)pyrimidin-4-amine] | ≤ 10 nM |
| COc1cccc(F)c1-c1nccc(Nc2cc(N3CCN(C)CC3)c(-c3cnn(C4CCOCC4)c3)cn2)n1 [Example 68, 2-(2-fluoro-6-methoxyphenyl)-N-(4-(4-methylpiperazin-1-yl)-5-(1-(tetrahydro-2H-pyran-4-yl)-1H-pyrazol-4-yl)pyridin-2-yl)pyrimidin-4-amine] | 10 to 50 nM |
| COc1cc(F)cc(F)c1-c1nccc(Nc2cc(N3CC[C@@H](F)[C@H](N)C3)c(-c3cnn(C(C)C)c3)cn2)n1 [Example 339, N-(4-((3R,4R)-3-amino-4-fluoropiperidin-1-yl)-5-(1-isopropyl-1H-pyrazol-4-yl)pyridin-2-yl)-2-(2,4-difluoro-6-methoxyphenyl)pyrimidin-4-amine hydrochloride] | ≤ 10 nM |
| Nc1cncc(-c2nccc(Nc3cc(N4CCC[C@H](O)C4)c(C(=O)C4CC4)cn3)n2)c1 [Example 2, (S)-(6-((2-(5-aminopyridin-3-yl)pyrimidin-4-yl)amino)-4-(3-hydroxypiperidin-1-yl)pyridin-3-yl)(cyclopropyl)methanone] | 10 to 50 nM |
| CCN[C@H]1CCN(c2cc(Nc3ccnc(-c4c(F)cccc4OC)n3)ncc2-c2cnn(C3CCOCC3)c2)C1 [Example 125, (S)-N-(4-(3-(ethylamino)pyrrolidin-1-yl)-5-(1-(tetrahydro-2H-pyran-4-yl)-1H-pyrazol-4-yl)pyridin-2-yl)-2-(2-fluoro-6-methoxyphenyl)pyrimidin-4-amine] | ≤ 10 nM |
| COc1cccc(F)c1-c1nccc(Nc2cc(N3CCC[C@H](N)C3)c(-c3cnn(C4CCNCC4)c3)cn2)n1 [Example 283, (S)-N-(4-(3-aminopiperidin-1-yl)-5-(1-(piperidin-4-yl)-1H-pyrazol-4-yl)pyridin-2-yl)-2-(2-fluoro-6-methoxyphenyl)pyrimidin-4-amine hydrochloride] | ≤ 10 nM |
| COc1cc(C(=O)N2CC[C@@H](F)C2)cc(F)c1-c1nccc(Nc2cc(N3CCC[C@H](O)C3)c(-c3cnn(C(F)F)c3)cn2)n1 [Example 233, (4-(4-((5-(1-(difluoromethyl)-1H-pyrazol-4-yl)-4-((S)-3-hydroxypiperidin-1-yl)pyridin-2-yl)amino)pyrimidin-2-yl)-3-fluoro-5-methoxyphenyl)((R)-3-fluoropyrrolidin-1-yl)methanone] | ≤ 10 nM |
| CCOc1cccc(F)c1-c1nccc(Nc2cc(N3CCC[C@H](O)C3)c(-c3cnn(C4CCOCC4)c3)cn2)n1 [Example 25, (S)-1-(2-((2-(2-ethoxy-6-fluorophenyl)pyrimidin-4-yl)amino)-5-(1-(tetrahydro-2H-pyran-4-yl)-1H-pyrazol-4-yl)pyridin-4-yl)piperidin-3-ol] | 10 to 50 nM |
| COc1cccc(F)c1-c1nc(Nc2cc(N3CCC[C@H](N)C3)c(-c3cnn(CC(F)(F)F)c3)cn2)ccc1C#N [Example 318, 6-((4-((S)-3-aminopiperidin-1-yl)-5-(1-(2,2,2-trifluoroethyl)-1H-pyrazol-4-yl)pyridin-2-yl)amino)-2-(2-fluoro-6-methoxyphenyl)nicotinonitrile hydrochloride] | ≤ 10 nM |
| COc1cccc(F)c1-c1nccc(Nc2cc(N3CCC[C@H](O)C3)c(-c3cnn(C4CCN(C)CC4)c3)cn2)n1 [Example 15, (S)-1-(2-((2-(2-fluoro-6-methoxyphenyl)pyrimidin-4-yl)amino)-5-(1-(1-methylpiperidin-4-yl)-1H-pyrazol-4-yl)pyridin-4-yl)piperidin-3-ol] | ≤ 10 nM |
| COc1cccc(F)c1-c1nccc(Nc2cc(N3C[C@@H](N)C[C@@H](C(F)(F)F)C3)c(-c3cnn(C(F)F)c3)cn2)n1 [Example 305, N-(4-((3S,5R)-3-amino-5-(trifluoromethyl)piperidin-1-yl)-5-(1-(difluoromethyl)-1H-pyrazol-4-yl)pyridin-2-yl)-2-(2-fluoro-6-methoxyphenyl)pyrimidin-4-amine hydrochloride] | ≤ 10 nM |
| COc1cccc(F)c1-c1nc(Nc2cc(N3CCC[C@H](N)C3)c(C#CC3CCOCC3)cn2)ccc1[N+](=O)[O-] [Example 155, 4-((S)-3-aminopiperidin-1-yl)-N-(6-(2-fluoro-6-methoxyphenyl)-5-nitropyridin-2-yl)-5-((tetrahydro-2H-pyran-4-yl)ethynyl)pyridin-2-amine hydrochloride] | ≤ 10 nM |
| COc1cccc(F)c1-c1nccc(Nc2cc(N3CC[C@@H](N)[C@@H](F)C3)c(-c3cnn(C(F)F)c3)cn2)n1 [Example 308, N-(4-((3S,4R)-4-amino-3-fluoropiperidin-1-yl)-5-(1-(difluoromethyl)-1H-pyrazol-4-yl)pyridin-2-yl)-2-(2-fluoro-6-methoxyphenyl)pyrimidin-4-amine hydrochloride] | ≤ 10 nM |
| COc1cccc(F)c1-c1nccc(Nc2cc(N3CCC[C@H](N)C3)c(-c3cnn(C4COC4)c3)cn2)n1 [Example 277, (S)-N-(4-(3-aminopiperidin-1-yl)-5-(1-(oxetan-3-yl)-1H-pyrazol-4-yl)pyridin-2-yl)-2-(2-fluoro-6-methoxyphenyl)pyrimidin-4-amine hydrochloride] | ≤ 10 nM |
| O[C@H]1CCCN(c2cc(Nc3ccnc(-c4cnn5ccccc45)n3)ncc2-c2cnn(C3CCOCC3)c2)C1 [Example 27, (S)-1-(2-((2-(pyrazolo[1,5-a]pyridin-3-yl)pyrimidin-4-yl)amino)-5-(1-(tetrahydro-2H-pyran-4-yl)-1H-pyrazol-4-yl)pyridin-4-yl)piperidin-3-ol] | 10 to 50 nM |
| COc1cccc(F)c1-c1cccc(Nc2cc(N3CCC[C@H](O)C3)c(-c3cnn(C4CCOCC4)c3)cn2)n1 [Example 35, (S)-1-(2-((6-(2-fluoro-6-methoxyphenyl)pyridin-2-yl)amino)-5-(1-(tetrahydro-2H-pyran-4-yl)-1H-pyrazol-4-yl)pyridin-4-yl)piperidin-3-ol] | ≤ 10 nM |

— patent US20260347338A1, “PYRIMIDINE/PYRIDINE DERIVATIVES OR SALTS THEREOF AND PHARMACEUTICAL COMPOSITIONS COMPRISING THE SAME” (YUHAN CORPORATION, priority 2023, published 2026)
